Data on 19 compounds can be found in patent publication US10154992B2, “Compounds and methods for treating HIV infection” (THE REGENTS OF THE UNIVERSITY OF CALIFORNIA, priority 2016, dated 2018).

Common to all, as to format: cell-based
The nature of data set [1]: MTT cell viability in parallel with the U1 assay. The note with it: human, U1 cells; Table 5; read-out: U1 TC50. On the procedure:
(§1) U1 activation assay. U1 cells obtained from the AIDS Research and Reference Reagent Program were maintained under standard culture conditions in RPMI 1640 supplemented with 10% fetal bovine serum (heat inactivated), 2 mM L-glutamine, 100U/mL penicillin and 100 μg/mL streptomycin. U1 cells contain an integrated copy of a phorbol ester inducible HIV-1 provirus and addition of phytohemagglutinin (PHA) to the cell culture was used to induce virus production. On the day of the assay, the U1 cells were activated with PHA and 250,000 cells were plated in 96-well plates. Test compounds were diluted in media and applied to the cells at final concentrations from 1 to 10,000 nM. Cultures were incubated for 3 days and supernatants harvested. Cell-free virus production was measured by p24 ELISA on culture supernatant. Compound toxicity was determined by MTT cell-viability assay in parallel assays.

The test system of data set [2] is HIV-1 provirus in U1 cells. Kind of data set: U1 activation (latency) assay, p24 ELISA. The note with it: Human immunodeficiency virus 1; Table 5; read-out: U1 IC50. On the procedure: as §1
Data set [3] can be described thus: MTT cell viability run in parallel with the Tat-hybrid assay. Conditions: human, Tat-hybrid reporter cell lines (HeLa); Table 5; read-out: Tat hybrid TC50. On the procedure:
Cells were counted and plated into white 384-well or 96-well cell-culture treated assay plates and compounds were added. After 48 hours, the cells were prepared for luminescence assays that were performed on a plate reader (Tecan Evolution or MD Analyst). The cytotoxicity of each compound was determined in parallel via MTT-based cell viability assays.
Tat hybrid reporter assay. […] Previously characterized thienopyridines and diaminoacridine were used as controls. Cells were counted and plated into white 384-well cell-culture treated assay plates and compounds were added. After 48 hours, the cells were prepared for lumincescence assays that were performed on a plate reader (Tecan Evolution or MD Analyst). The cytotoxicity of each compound was determined in parallel via MTT-based cell viability assays. […]

Data set [4] is described as follows: MTT cell viability in Jurkat replication assay. The note with it: human, Jurkat (E6-1) cells, pH 7.4; Table 5; read-out: Jurkat TC50. The procedure:
(§2) Virus spreading assay. Jurkat (E6-1) cells (NIH AIDS Reagent Program) were cultured in RPMI media supplemented with 25 mM HEPES pH 7.4, 10% heat-inactivated fetal calf serum (Hyclone, Waltham Mass.), and 1% penicillin/streptomycin. 2.5×10^5 Jurkat cells were inoculated with 250 pg p24 in 250 μl media in a 96-well flat bottom polystyrene cell culture microplate. Input virus was removed after 18 hours via washing cells phosphate-buffered saline (PBS). Cells were resuspended in 250 μl of media containing compounds at the described concentrations. Cells were incubated at 37° C., 5% CO2 and supernatant samples were removed every 48 hours and replaced with fresh media containing the compounds. Viral replication was quantified using ELISA to quantify p24 viral capsid protein in the culture supernatant. Mouse monoclonal and rabbit polyclonal α-p24 antibodies used in the ELISA were obtained from the NIH AIDS Reagent Program. Toxicity was monitored using the MTT cell viability assay (Mosmann, T. (1983). J Immunol Methods 65, 55-63).

Data set [5] has as its system HIV-1 isolate NL4-3. Nature of the data set: Virus spreading / replication assay in Jurkat cells, p24 ELISA. The note with it: Human immunodeficiency virus 1, NL43, Jurkat; Table 5; read-out: Jurkat replication IC50. On the procedure:
as §2
For orientation: ELISA stands for enzyme-linked immunosorbent assay.

Some results are limits rather than exact numbers.

The IC50 is the concentration that inhibits the measured activity by half. Consider `NC(=O)c1cc2c(-c3ccc4ccccc4c3)cncc2s1`, for which, in data set [1], the CC50 at 3 days is less than 40 µM. Also, the IC50 in data set [2] and in data set [5] was less than 0.1 µM in each case. In data set [3], the CC50 at 48 h was more than 40 µM. Also, the CC50 in data set [4] was less than 40 µM.
Take `NC(=O)c1cc2c(-c3cnc4ccccc4c3)cncc2s1`: the CC50 at 3 days in data set [1] was more than 40 µM. Also, the half-inhibitory concentration (IC50) in data set [2] and in data set [5] was less than 0.1 µM in each case. Further, the CC50 at 48 h in data set [3] was more than 40 µM. In data set [4], the CC50 is more than 40 µM.
Consider `NC(=O)c1sc2cncc(N3CCc4sccc4C3)c2c1N`, for which the CC50 at 3 days in data set [1] is less than 40 µM. Moreover, the IC50 in data set [2] is less than 0.1 µM. Also, the CC50 at 48 h in data set [3] is more than 40 µM.
The matching figures for `CN(C)c1ccc(-c2cncc3sc(C(N)=O)c(N)c23)cc1`: more than 40 µM, less than 0.1 µM and less than 40 µM.
The corresponding values for `NC(=O)c1cc2c(N3CCCCC3)cncc2s1` are less than 40 µM, 0.1 to 0.5 µM and more than 40 µM.
The corresponding values for `NC(=O)c1cc2c(-c3cc4ccccc4o3)cncc2s1` are less than 40 µM, more than 0.5 µM and more than 40 µM.
Consider `CNC(=O)c1ccc(-c2cncc3sc(C(N)=O)c(N)c23)cc1`, for which the CC50 at 3 days in data set [1] was more than 40 µM. Besides, the half-maximal inhibitory concentration (IC50) in data set [2] was less than 0.1 µM. Further, the CC50 at 48 h in data set [3] was less than 40 µM.
The corresponding values for `CN(C)C(=O)c1ccc(-c2cncc3sc(C(N)=O)c(N)c23)cc1` are more than 40 µM, 0.1 to 0.5 µM and less than 40 µM.
The matching figures for `NC(=O)c1sc2cncc(-c3ccoc3)c2c1N`: less than 40 µM, 0.1 to 0.5 µM and more than 40 µM.
The matching figures for `NC(=O)c1cc2c(-c3ccccc3OC(F)(F)F)cncc2s1`: less than 40 µM, more than 0.5 µM and more than 40 µM.
For `NC(=O)c1sc2cncc(-c3ccc4cc[nH]c4c3)c2c1N`, the CC50 at 3 days in data set [1] is more than 40 µM. Besides, the IC50 in data set [2] fell in the range of 0.1 to 0.5 µM. Further, the CC50 at 48 h in data set [3] was more than 40 µM.
Regarding `NC(=O)c1sc2cncc(-c3ccc4c(c3)OCCO4)c2c1N`, the CC50 at 3 days in data set [1] is more than 40 µM. Moreover, in data set [2], the IC50 fell in the range of 0.1 to 0.5 µM. Further, the CC50 at 48 h in data set [3] is less than 40 µM.
The corresponding values for `NC(=O)c1cc2c(N3CCOCC3)cncc2s1` are less than 40 µM, 0.1 to 0.5 µM and more than 40 µM.
The matching figures for `COc1ccccc1-c1cncc2sc(C(N)=O)c(N)c12`: more than 40 µM, 0.1 to 0.5 µM and more than 40 µM.
The corresponding values for `COc1ncc(-c2cncc3sc(C(N)=O)cc23)c(OC)n1` are more than 40 µM, more than 0.5 µM and more than 40 µM.
Turning to `CCOc1ncccc1-c1cncc2sc(C(N)=O)c(N)c12`, the CC50 at 3 days in data set [1] was more than 40 µM. Besides, in data set [2], the IC50 is 0.1 to 0.5 µM. Moreover, in data set [3], the CC50 at 48 h was more than 40 µM.
Take `NC(=O)c1sc2cncc(N3CCN(C=O)CC3)c2c1N`: the CC50 at 3 days in data set [1] was more than 40 µM. Further, the IC50 in data set [2] was more than 0.5 µM. Further, the CC50 at 48 h in data set [3] was less than 40 µM.
The matching figures for `CN(C)c1cncc2sc(C(N)=O)c(N)c12`: more than 40 µM, 0.1 to 0.5 µM and less than 40 µM.
With `CN(C)c1cccc(-c2cncc3sc(C(N)=O)c(N)c23)c1`, the CC50 at 3 days in data set [1] was more than 40 µM. The half-maximal inhibitory concentration (IC50) in data set [2] lay in the range of 0.1 to 0.5 µM. In addition, the CC50 at 48 h in data set [3] was less than 40 µM.
